Test results as given in US12624044B2, “SMARCA degraders and uses thereof” (Kymera Therapeutics, Inc., priority 2019, dated 2026).

What was measured:
SMARCA4 = target: T1, SMARCA4 (Homo sapiens, UniProt P51532); assay: SMARCA4 Western blot MV4-11 degradation; type: cell-based; details: 24 h; for Dmax: MV4-11, MV4-11 cells, read-out: SMARCA4 WB MV411 degradation 24 h: Average Dmax %; for DC50: MV4-11 cells, read-out: SMARCA4 WB MV411 degradation 24 h: Average external-Abs DC50
T1 construct: SMARCA2 and SMARCA4 protein degradation in MV4-11 cells; endogenous in cells; host or cells: MV4-11
Procedure: Cells were seeded into 6-well plates (MV4-11: 4×10^6 cells/well/1 ml) and 1 ml of 2× compound solution was added into the well to make the final concentration and the plates were mixed well and incubated for 24 hours (No cytotoxicity was observed). The cell were collected with media and spun at 3000 rpm for 5 minutes. The supernatant was aspirated and the well and the cells were washed with cold PBS once and combined for centrifugation again; the supernatant aspirated again. 200 ul pre-chilled RIPAlysis buffer (Boston BioProducts BP-115D) with protease/phosphatase inhibitor (Roche 05892791001/Roche 04906837001) was directly added into the tube to lyze the cells for 20 minutes on ice. The cell lysate were collected into EP tubes and spun at 13000 rpm for 20 minutes and 72 ul supernatant was transferred to a fresh EP tube containing 18 ul of 5× loading buffer (Beyotime Bio P0015) to make the loading samples. The samples were heated to 100° C. for 10 minutes and cooled to RT and microcentrifuged. 20 ul of samples were loaded onto SDS-PAGE gel (Novex, WG1402BOX) and the gel was run at 80 V for 20 minutes and 120 V for 1.5 hours. The samples were electrotransfer to a NC membrane using wet-transfer method with 250 mA for 2.5 hours. The membrane was blocked with LICOR blocking buffer (LI-COR, 927-50000) for 1 hour. The membrane was washed three times with TBST (CST #9997S), 5 minutes each. Incubation was performed with primary antibody prepared in blocking buffer with 0.1% Tween-20 (Solarbio, P8220) at 4° C. overnight (Anti-SMARCA2/BRM antibody (ab15597) 1:500; Anti-BRG1 antibody [EPR3912] (ab108318) 1:1000; Rabbit anti-Baf180 antibody [EPR15860] (Abcam, ab196022) 1:1000; mouse anti-beta-Actin (8H10D10) (CST #3700) 1:10000). The membrane was washed three times with TBST, 5 minutes each. Incubation with secondary antibody was performed for 1 hour at RT (anti-rabbit IgG (Licor, 926-32211) 1:5000; anti-mouse IgG (LI-COR, 926-68070) 1:5000). The membrane was washed three times with TBST, 5 minutes each and lastly the LiCOR was read.
The letter codes for the percentage of SMARCA degradation after 24 hours (Dmax %) include: A (>90% degradation), B (>70-90% degradation), C (50-70% degradation), and D (<50% degradation).

SMARCA2 = SMARCA2 (Homo sapiens, UniProt P51531); assay: MSD SMARCA2 degradation in NCI-H1299 cell line (24 h); type: cell-based; design: HC: NCI-H1299 cells treated with DMSO; host or cells: NCI-H1299; details: for Dmax: NCI-H1299, NCI-H1299 cells; for DC50: NCI-H1299 cells, read-out: SMARCA2 MSD H1299 degradation 24 h: External Abs-DC50
How it was run: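 SMARCA2 measured by MSD electrochemiluminescence (primary 0.3 ug/ml, secondary 1 ug/ml) on lysates from NCI-H1299 cells exposed to compounds for 24 h across nine 3-fold dilutions. Signal scaled from A2780 cells (no SMARCA2) to DMSO-treated H1299 controls, and maximal degradation after 24 h reported in letter categories.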

Sequence of SMARCA2 (P51531 whole entry): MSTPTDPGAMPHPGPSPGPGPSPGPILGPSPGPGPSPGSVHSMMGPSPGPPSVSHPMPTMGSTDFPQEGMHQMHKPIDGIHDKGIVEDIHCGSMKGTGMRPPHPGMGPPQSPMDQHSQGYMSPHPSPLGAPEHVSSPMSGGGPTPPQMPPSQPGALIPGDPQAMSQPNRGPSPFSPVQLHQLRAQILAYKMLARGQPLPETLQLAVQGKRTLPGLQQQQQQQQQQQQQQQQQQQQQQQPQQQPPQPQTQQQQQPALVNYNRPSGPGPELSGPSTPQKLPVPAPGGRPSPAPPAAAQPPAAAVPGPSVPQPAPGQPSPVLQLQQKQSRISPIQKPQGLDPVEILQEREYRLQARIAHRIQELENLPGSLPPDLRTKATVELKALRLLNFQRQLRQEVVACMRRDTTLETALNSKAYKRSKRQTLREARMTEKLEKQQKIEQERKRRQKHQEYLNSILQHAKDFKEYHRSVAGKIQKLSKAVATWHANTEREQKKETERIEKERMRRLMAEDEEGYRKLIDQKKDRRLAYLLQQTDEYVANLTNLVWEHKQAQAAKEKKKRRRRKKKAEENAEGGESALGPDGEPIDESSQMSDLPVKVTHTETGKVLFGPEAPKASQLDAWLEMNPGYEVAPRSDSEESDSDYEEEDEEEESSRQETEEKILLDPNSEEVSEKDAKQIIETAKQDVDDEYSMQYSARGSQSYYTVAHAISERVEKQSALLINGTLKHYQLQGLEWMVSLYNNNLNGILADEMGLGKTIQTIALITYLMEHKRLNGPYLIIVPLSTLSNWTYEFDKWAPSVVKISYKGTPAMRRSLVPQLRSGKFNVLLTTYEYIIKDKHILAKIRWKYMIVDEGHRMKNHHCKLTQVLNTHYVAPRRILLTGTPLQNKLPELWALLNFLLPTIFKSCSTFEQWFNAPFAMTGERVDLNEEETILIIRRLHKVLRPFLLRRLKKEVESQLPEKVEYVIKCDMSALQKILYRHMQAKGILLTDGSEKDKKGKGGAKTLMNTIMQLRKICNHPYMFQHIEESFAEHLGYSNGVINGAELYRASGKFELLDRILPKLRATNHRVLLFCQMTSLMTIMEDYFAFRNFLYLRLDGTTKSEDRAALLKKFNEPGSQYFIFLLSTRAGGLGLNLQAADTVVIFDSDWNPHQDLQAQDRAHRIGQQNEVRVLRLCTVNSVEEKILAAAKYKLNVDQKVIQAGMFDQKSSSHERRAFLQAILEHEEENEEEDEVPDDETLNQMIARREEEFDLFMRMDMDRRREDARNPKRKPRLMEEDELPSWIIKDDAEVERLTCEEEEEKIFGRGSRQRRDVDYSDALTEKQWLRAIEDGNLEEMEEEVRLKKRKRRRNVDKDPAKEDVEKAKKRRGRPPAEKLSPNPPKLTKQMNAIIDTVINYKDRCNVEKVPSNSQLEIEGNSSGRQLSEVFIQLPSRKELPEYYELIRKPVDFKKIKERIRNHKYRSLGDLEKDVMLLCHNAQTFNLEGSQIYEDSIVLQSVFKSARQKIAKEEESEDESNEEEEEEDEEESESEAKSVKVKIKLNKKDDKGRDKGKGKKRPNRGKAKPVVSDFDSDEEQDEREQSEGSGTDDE
T1 sequence (P51532 whole entry): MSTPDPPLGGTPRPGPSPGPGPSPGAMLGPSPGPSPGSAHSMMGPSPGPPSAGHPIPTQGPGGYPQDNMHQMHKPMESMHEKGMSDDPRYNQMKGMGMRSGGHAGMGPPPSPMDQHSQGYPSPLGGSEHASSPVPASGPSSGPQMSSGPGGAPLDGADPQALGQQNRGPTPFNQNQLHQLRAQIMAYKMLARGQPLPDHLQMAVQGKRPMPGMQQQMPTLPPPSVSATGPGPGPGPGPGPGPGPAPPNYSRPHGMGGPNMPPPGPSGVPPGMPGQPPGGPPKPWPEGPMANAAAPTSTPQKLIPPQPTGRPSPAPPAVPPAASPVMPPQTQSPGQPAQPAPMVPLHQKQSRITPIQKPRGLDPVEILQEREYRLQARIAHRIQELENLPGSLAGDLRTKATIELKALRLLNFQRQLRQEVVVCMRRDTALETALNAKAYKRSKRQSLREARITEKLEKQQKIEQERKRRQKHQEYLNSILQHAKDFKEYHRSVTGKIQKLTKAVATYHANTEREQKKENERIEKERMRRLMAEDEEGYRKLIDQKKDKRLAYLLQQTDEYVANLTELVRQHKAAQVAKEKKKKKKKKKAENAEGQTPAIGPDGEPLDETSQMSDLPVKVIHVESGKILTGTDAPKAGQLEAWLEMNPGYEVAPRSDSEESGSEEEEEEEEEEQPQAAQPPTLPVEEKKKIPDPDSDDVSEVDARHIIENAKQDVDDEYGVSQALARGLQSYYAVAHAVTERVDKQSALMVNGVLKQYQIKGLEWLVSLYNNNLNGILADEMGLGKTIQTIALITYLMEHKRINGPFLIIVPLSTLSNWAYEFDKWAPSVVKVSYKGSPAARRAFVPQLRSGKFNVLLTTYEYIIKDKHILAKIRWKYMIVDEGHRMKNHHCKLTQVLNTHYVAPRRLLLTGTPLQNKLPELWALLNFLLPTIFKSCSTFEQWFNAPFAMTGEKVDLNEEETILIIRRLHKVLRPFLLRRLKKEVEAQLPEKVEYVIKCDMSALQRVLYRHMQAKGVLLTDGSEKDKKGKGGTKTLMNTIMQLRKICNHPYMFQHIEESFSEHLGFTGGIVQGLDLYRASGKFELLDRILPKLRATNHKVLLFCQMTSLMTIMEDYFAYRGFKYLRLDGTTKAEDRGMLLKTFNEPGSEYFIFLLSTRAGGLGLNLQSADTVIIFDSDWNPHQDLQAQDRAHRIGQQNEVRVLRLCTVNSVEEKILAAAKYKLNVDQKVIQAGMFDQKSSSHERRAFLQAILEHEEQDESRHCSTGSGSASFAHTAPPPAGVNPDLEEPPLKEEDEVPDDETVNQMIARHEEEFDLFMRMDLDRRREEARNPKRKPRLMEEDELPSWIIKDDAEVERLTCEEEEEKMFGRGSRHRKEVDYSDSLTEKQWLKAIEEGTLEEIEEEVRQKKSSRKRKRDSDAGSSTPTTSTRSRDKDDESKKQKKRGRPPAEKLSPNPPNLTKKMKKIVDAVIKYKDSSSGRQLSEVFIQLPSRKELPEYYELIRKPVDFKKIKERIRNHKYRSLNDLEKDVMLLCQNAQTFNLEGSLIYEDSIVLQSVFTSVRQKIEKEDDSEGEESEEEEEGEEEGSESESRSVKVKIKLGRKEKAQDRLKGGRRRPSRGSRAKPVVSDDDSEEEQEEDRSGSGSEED

Structure (SMILES) | Dmax (SMARCA4) [%] | DC50 (SMARCA4) [nM] | Dmax (SMARCA2) [%] | DC50 (SMARCA2) [nM]
Cn1c(=O)n(C2CCC(=O)NC2=O)c2ccc(CCCN3CCCC(c4cnc(N5C6CCC5CN(c5cc(-c7ccccc7O)nnc5N)C6)nc4)C3)cc21 (stereo not drawn) [I-289] | 50 to 70 | < 100 | 70 to 90 | < 100
Cn1c(=O)n(C2CCC(=O)NC2=O)c2cccc(CCCN3CCCC(c4cnc(N5C6CCC5CN(c5cc(-c7ccccc7O)nnc5N)C6)nc4)C3)c21 (stereo not drawn) [I-292] | > 90 | < 100 | > 90 | < 100
Cn1c(=O)n(C2CCC(=O)NC2=O)c2ccc(CCN3CCN(C(=O)c4cnc(N5C6CCC5CN(c5cc(-c7ccccc7O)nnc5N)C6)nc4)CC3)cc21 (stereo not drawn) [I-293, 3-(5-(2-(4-(2-(3-(3-amino-6-(2-hydroxyphenyl)pyridazin-4-yl)-3,8-diazabicyclo[3.2.1]octan-8-yl)pyrimidine-5-carbonyl)piperazin-1-yl)ethyl)-3-methyl-2-oxo-2,3-dihydro-1H-benzo[d]imidazol-1-yl)piperidine-2,6-dione] | > 90 | < 100 | > 90 | < 100
Cn1c(=O)n(C2CCC(=O)NC2=O)c2ccc(CC(=O)N3CCN(Cc4cnc(N5C6CCC5CN(c5cc(-c7ccccc7O)nnc5N)C6)nc4)CC3)cc21 (stereo not drawn) [I-294] | > 90 | < 100 | > 90 | < 100
Cn1c(=O)n(C2CCC(=O)NC2=O)c2ccc(C#CCCNC(=O)Cc3cnc(N4C5CCC4CN(c4cc(-c6ccccc6O)nnc4N)C5)nc3)cc21 (stereo not drawn) [I-295] | < 50 | < 100 | < 50 | > 1000
Cn1c(=O)n(C2CCC(=O)NC2=O)c2ccc(CCCCNC(=O)Cc3cnc(N4C5CCC4CN(c4cc(-c6ccccc6O)nnc4N)C5)nc3)cc21 (stereo not drawn) [I-296] | 70 to 90 | < 100 | > 90 | < 100
CN1C(=O)CCC(n2c(=O)n(C)c3cc(CCCN4CCC(c5cnc(N6C7CCC6CN(c6cc(-c8ccccc8O)nnc6N)C7)nc5)CC4)ccc32)C1=O (stereo not drawn) [I-297] | < 50 |  | < 50 | > 1000
CN(CCCC#Cc1cnc(N2C3CCC2CN(c2cc(-c4ccccc4O)nnc2N)C3)nc1)Cc1ccc2c(c1)n(C)c(=O)n2C1CCC(=O)NC1=O (stereo not drawn) [I-298] | > 90 | < 100 | > 90 | < 100
CN(CCCc1cnc(N2C3CCC2CN(c2cc(-c4ccccc4O)nnc2N)C3)nc1)Cc1cccc2c1n(C)c(=O)n2C1CCC(=O)NC1=O (stereo not drawn) [I-299] | > 90 | < 100 | > 90 | < 100
Cn1c(=O)n(C2CCC(=O)NC2=O)c2cccc(C#CCN3CCCC(c4cnc(N5C6CCC5CN(c5cc(-c7ccccc7O)nnc5N)C6)nc4)C3)c21 (stereo not drawn) [I-300] | 70 to 90 | < 100 | > 90 | < 100
Cn1c(=O)n(C2CCC(=O)NC2=O)c2ccc(CCCCCCCCCNC(=O)c3cccc(C#Cc4cc(NC(=O)Nc5ccnc(Cl)c5)ccn4)c3)cc21 (stereo not drawn) [I-301, 3-[2-[4-[(2-chloro-4-pyridyl)carbamoylamino]-2-pyridyl]ethynyl]-N-[9-[1-(2,6-dioxo-3-piperidyl)-3-methyl-2-oxo-benzimidazol-5-yl]nonyl]benzamide] | < 50 | 100 to 500 | < 50 | 100 to 500
Cc1ncsc1-c1ccc(CNC(=O)[C@@H]2C[C@@H](O)CN2C(=O)[C@@H](NC(=O)CN2CCC(c3nccc(N4C5CCC4CN(c4cc(-c6ccccc6O)nnc4N)C5)n3)CC2)C(C)(C)C)cc1 [I-450] | 50 to 70 | 100 to 500 | < 50 | 100 to 500
Cc1ncsc1-c1ccc(CNC(=O)[C@@H]2C[C@@H](O)CN2C(=O)[C@@H](NC(=O)CN2CCC(c3cnc(N4CCN(c5cc(-c6ccccc6O)nnc5N)CC4)nc3)CC2)C(C)(C)C)cc1 [I-451] | 70 to 90 | 100 to 500 | > 90 | 100 to 500
